Twelve compounds from ChEMBL document CHEMBL1201862, “PubChem BioAssay data set” (2004) can be followed below.

Common to all, as to assay: growth of human tumour cells (NCI), 48 h
Test [1] relates to OVCAR-3.
Test [2] concerns HOP-92.
For test [3], the system named is HT-29.
In test [4] the test system is RPMI-8226.
The test system of test [5] is CAKI-1.
Test [6] has as its system HCC 2998.
For test [7], the system named is SK-OV-3.
Test [8] has as its system HL-60.
For test [9], the system named is M14.
Test [10] deals with Malme-3M.
Test [11] has as its system RXF 393.
Test [12] relates to OVCAR-4.
Test [13] concerns IGROV-1.
Test [14] deals with UACC-257.
Test [15] relates to U-251.
Test [16] has as its system UO-31.
For test [17], the system named is KM12.

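Grown in 96-well plates, cells were treated for 48 hours with each compound at five concentrations. Insufficient inhibition: endpoint recorded as highest concentration tested. GI50 is the concentration that inhibits growth by half.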 Calls of active or inactive are those of the source. Cut-off read from the data, not from the text of the source: active = GI50 up to about 1.1 µM and inactive = higher.

For the compound `CC1(C)C(=NNC(=S)NN)C(C)(C)C1=NNC(=S)NN`, the GI50 in test [1], in test [2], in [3], in test [4], in test [5] and in [6] was > 100 µM (inactive) in each case. Besides, the GI50 is > 100 µM (inactive) in test [7]; > 10 µM (inactive) in test [8]; > 100 µM (inactive) in test [9]; > 100 µM (inactive) in [10]; > 100 µM (inactive) in test [11]; > 100 µM (inactive) in test [12]. Moreover, the GI50 in test [13] and in [14] was > 100 µM (inactive) in each case.
Take `O=C(NOC(=O)c1ccc([N+](=O)[O-])cc1)c1ccc(Cl)cc1`: the GI50 in test [2] is 27.4 µM (inactive); in [15], 76.7 µM (inactive); in test [16], 23.8 µM (inactive); in test [3], > 100 µM (inactive); in [4], 65.2 µM (inactive); in test [5] it was 39.6 µM (inactive). The GI50 in test [6] is > 100 µM (inactive); in test [7], > 100 µM (inactive); in [8], 15.8 µM (inactive); in test [9], > 100 µM (inactive); in test [10], > 100 µM (inactive); in test [11], 87.1 µM (inactive). Besides, the GI50 in [12] was 88.9 µM (inactive); in [17] it was > 100 µM (inactive); in test [13], 21.4 µM (inactive); in test [14], > 100 µM (inactive).
In the case of `CC1=C(C(=O)Nc2ccccc2C)C(c2ccccc2O)C(C(=O)Nc2ccccc2C)=C(C)N1`, the GI50 was 17.3 µM (inactive) in test [1]; 51.4 µM (inactive) in [2]; 16.8 µM (inactive) in [16]; 25.7 µM (inactive) in test [3]; 20.3 µM (inactive) in [4]; 23.4 µM (inactive) in test [5]. For the same compound, the GI50 in [6] is 15.9 µM (inactive); in test [8], 21 µM (inactive); in test [9], 18.2 µM (inactive); in test [10] it was 26.7 µM (inactive); in [11], 25.6 µM (inactive); in [12], 22.2 µM (inactive). For the same compound, the GI50 in test [17] was 14.7 µM (inactive); in test [13], 17.6 µM (inactive); in test [14], 22 µM (inactive).
For the compound `Clc1ccc(-c2c(C3=NCCN3)nnn2-c2ccc(Cl)cc2)cc1`, the GI50 was 48.9 µM (inactive) in test [1]; 18.2 µM (inactive) in test [2]; 20.5 µM (inactive) in test [15]; 14.4 µM (inactive) in test [16]; 13.9 µM (inactive) in [3]; 16.7 µM (inactive) in test [4]. For the same compound, the GI50 is 33.5 µM (inactive) in test [5]; 17.1 µM (inactive) in [6]; 29.6 µM (inactive) in [7]; 17.5 µM (inactive) in [8]; 17.1 µM (inactive) in test [9]; 19.1 µM (inactive) in [10]. In addition, the GI50 is 16.7 µM (inactive) in test [11]; 47.4 µM (inactive) in [12]; 19.8 µM (inactive) in test [17]; 56 µM (inactive) in test [13]; 18.2 µM (inactive) in test [14].
`N#CC(Sc1ccccc1)C(N)=O` (stereo not drawn): the GI50 in test [1], in test [2], in test [15], in test [16], in [3] and in [4] was > 100 µM (inactive) each time. Further, the GI50 in [5], in test [6], in [7], in [8], in [9] and in test [10] was > 100 µM (inactive) each time. Further, the GI50 in test [11], in test [12], in test [17], in [13] and in [14] was > 100 µM (inactive) each time.
Consider `O=C(O)/C(=C\c1ccccc1Cl)S(=O)(=O)c1ccccc1`, for which the GI50 in test [2], in [15], in [16], in test [3], in test [4] and in test [5] was > 100 µM (inactive) each time. Also, the GI50 in test [6], in [7], in [8], in test [9], in test [10] and in test [11] was > 100 µM (inactive) in each case. Besides, the GI50 in [12], in [17], in test [13] and in [14] was > 100 µM (inactive) in each case.
In the case of `O=C(CCc1cc(-c2ccccc2)[nH]c(=S)n1)Nc1ccccc1[N+](=O)[O-]`, the GI50 in test [1], in test [2], in test [15], in [16], in [3] and in test [4] was > 100 µM (inactive) in each case. Moreover, the GI50 in test [5], in test [6], in test [7], in [8], in test [9] and in test [10] was > 100 µM (inactive) each time. Further, the GI50 in test [11], in test [17], in test [13] and in test [14] was > 100 µM (inactive) throughout.
For the compound `O=C(CC(=O)c1cccc([N+](=O)[O-])c1)C(=O)Nc1ccccc1`, the GI50 in test [1], in test [2], in test [15], in test [16], in test [3] and in test [4] was > 100 µM (inactive) throughout. The GI50 in test [5], in test [6], in test [8], in test [9], in test [10] and in [11] was > 100 µM (inactive) throughout. Besides, the GI50 in test [12], in [17], in [13] and in [14] was > 100 µM (inactive) throughout.
With `C[Si](C)(C)/C(Br)=C\CCN1C(=O)CCC1=O`, the GI50 in test [1], in [2], in [15], in test [16], in test [3] and in test [5] was > 100 µM (inactive) throughout. Further, the GI50 in [6], in [7], in test [8], in test [9], in [10] and in test [11] was > 100 µM (inactive) throughout. Further, the GI50 in test [12], in test [17], in [13] and in test [14] was > 100 µM (inactive) in each case.
Turning to `COc1cccc(-c2cc(O)c3cc4c(cc3n2)OCO4)c1`, the GI50 in test [1] was 0.038 µM (active); in test [2] it was 18 µM (inactive); in test [15] it was 0.121 µM (active); in [16], 0.182 µM (active); in test [3] it was 0.144 µM (active); in [4], 0.492 µM (active). Also, the GI50 is 0.0339 µM (active) in test [5]; 0.182 µM (active) in [6]; 0.0374 µM (active) in test [7]; 0.0605 µM (active) in [8]; 0.0463 µM (active) in test [9]; 0.0488 µM (active) in test [10]. The GI50 in [11] was 0.0452 µM (active); in test [12], 0.938 µM (active); in test [17], 0.0502 µM (active); in [13], 0.366 µM (active); in [14] it was 0.0452 µM (active).
`CCN(CC)CCOc1ccc(C(O)(Cc2ccc(OC)cc2)c2ccccc2)cc1` (stereo not drawn): the GI50 in test [1] was 34.1 µM (inactive); in test [2], 14.7 µM (inactive); in test [15], 16.2 µM (inactive); in test [16], 22 µM (inactive); in [3], 3.83 µM (inactive); in [4] it was 13.4 µM (inactive). Further, the GI50 in test [5] is 21.7 µM (inactive); in test [6], 14 µM (inactive); in [7], 23.6 µM (inactive); in test [8] it was 7.52 µM (inactive); in test [9], 14.3 µM (inactive); in test [10], 18.5 µM (inactive). For the same compound, the GI50 in [11] was 13.1 µM (inactive); in [12], 16.1 µM (inactive); in [17], 17.3 µM (inactive); in test [13], 32.6 µM (inactive); in test [14] it was 15.7 µM (inactive).
`C/C(=C\Cc1cc(O)ccc1O)CCc1c(C)c(O)c(O)c(C=O)c1C` [PANICEIN C]: the GI50 in test [1] is 21.2 µM (inactive); in test [2], 15.7 µM (inactive); in [15], 18.6 µM (inactive); in test [16], 28.2 µM (inactive); in test [3], 29.2 µM (inactive); in [4], 17.4 µM (inactive). For the same compound, the GI50 in test [5] was 26.7 µM (inactive); in test [6] it was 47.9 µM (inactive); in test [7] it was 26.7 µM (inactive); in test [8], > 100 µM (inactive); in [9] it was 25.5 µM (inactive); in test [10], 32.9 µM (inactive). In addition, the GI50 is 16.1 µM (inactive) in test [11], 26.5 µM (inactive) in test [12], 20.3 µM (inactive) in test [17] and 17.1 µM (inactive) in test [13].
